Reference: PMC4931907 (eLife, 2016)
Like-named read-outs stand apart in the source and are kept apart here.

Experiments:
[1] = system: histone acetylation (H2BK12/K15) in HEK293T cells; assay: Site-specific histone acetylation in HEK293T cells by Western blot; format: cell-based; conditions: for Deacetylation of specific histone residues: Western blot; for IC50: Homo sapiens, HEK-293T
Description: To determine whether salicylate induces histone deacetylation directly in cells, we treated HEK293T cells with various concentrations of salicylate.
Figure 2. Salicylate inhibits specific lysine acetylation of histone and nonhistone proteins independently of AMPK activation. […] HEK293T cells were treated with the indicated concentrations of sodium salicylate for 24 hr. Site-specific histone acetylation was detected by Western blot with specific antisera. Bands were quantified with Image J software. Acetylation was normalized to that of untreated cells and plotted. Representative results are shown in Supplementary Figure 1. Experiments are repeated and error bars indicate SEM. […] HEK293T cells were transfected with increasing amounts of expression vectors for p300 or F1504A or PCAF, treated with sodium salicylate for 24 hr, and analyzed by Western blotting analysis with an antiserum specific for acetyl histone H2BK12/K15. Bands were quantified with Image J software. Acetylation was normalized to that of untreated control. Average levels of relative acetylation are plotted and error bars indicate SEM. Representative results are shown in Supplementary Figure 2—figure supplement 2. (E) IC50 values generated from all curves in panel (B) and (D) were plotted against the amount of plasmid transfected (p300 or PCAF). (F), (G) HEK293 T cells were transfected with expression vectors for p300 and NF-κB p65 (F) or p53 (G), treated with salicylate for 24 hr, and analyzed by Western blot with specific antibodies against acetyl NF-κBK310 (F) or acetyl p53K382 and acetyl H2BK12/15 (G). Compound C (10 μM), a specific AMPK inhibitor, was added to salicylate-treated cells for 24 hr before Western blot (G). KR, p65 K310R mutant DOI: http://dx.doi.org/10.7554/eLife.11156.005 Figure 2—figure supplement 1. Salicylate induces histone deacetylation in HEK293T cells HEK293T cells were treated with sodium salicylate as indicated for 24 hr, immediately lysed in Laemmli buffer, and then subjected to western blot analysis with the indicated antibodies. Histones H2A, H2B, H3 and H4 were used as input loading controls. Experiments are repeated five times and representative data are shown. DOI: http://dx.doi.org/10.7554/eLife.11156.006 [drawing 2] Figure 2—figure supplement 2. Salicylate-induced deacetylation of histone H2B can be rescued by overexpression of p300, but not PCAF, in a dose-dependent manner. (A) Overexpression of p300 but not PCAF specifically leads to hyperacetylation of histone H2B. […] H2B acetylation was measured by western blot and the specified antibodies. (B) Overexpression of p300 but not PCAF rescued salicylate-induced H2B deacetylation in a dose-dependent manner. […] H2B acetylation was measured by Western Blot and the specified antibodies. […]

AML1-ETO fusion protein = assay: AML1-ETO K24/K43 acetylation in Kasumi-1 cells (immunoprecipitation, Western blot); format: cell-based, human; conditions: Kasumi-1, 24 hr; salicylate 4 or 8 mM, diflunisal 100 or 200 μM
Source text: Previously, we reported that the leukemogenicity of the AML1-ETO fusion protein, generated by a t(8;21) translocation in acute myelogenous leukemia, is regulated by p300-mediated acetylation of lysine 43 of the fusion protein ([Wang et al., 2011]).
Figure 4. […] (B) Kasumi-1 and AE9a cells treated or not with salicylate were counted by trypan-blue exclusion under light microscopy. […] The percentage of sub-G1 cells is shown. […] Cells were counted by trypan-blue exclusion under light microscopy. […] DOI: http://dx.doi.org/10.7554/eLife.11156.011
AML1-ETO protein in the lysate was immunoprecipitated with an anti-ETO antibody (Santa Cruz Biotechnology). Antibodies against AML1 and acetylated AML1-ETO K24/K43 (generated in the Nimer lab) were used for Western blotting.

[2] = cited from earlier work

| SMILES | Deacetylation of specific histone residues ([1]; HEK293T cells, 24 hr) | IC50 ([1]; 24 h, read-out: IC50 for H2BK12/K15 inhibition in cells) [µM] | K24 and K43 acetylation of AML1-ETO (AML1-ETO fusion protein) | Plasma concentrations of diflunisal ([2]; after daily oral administration, ref Nuernberg et al., 1991, Mano et al., 2006) [µM] | IC50 ([1]; HEK293T cells, 24 hr, read-out: IC50 for inhibition of H2B acetylation) [µM] | Plasma concentrations of salicylate ([2]; humans after oral administration, ref Goldfine et al., 2010, 2013) [µM] | Salicylate plasma concentrations in patients ([2]; patients taking salicylic acid 3–4 g/day, no reference given) [mM] |
| --- | --- | --- | --- | --- | --- | --- | --- |
| O=C(O)c1cc(-c2ccc(F)cc2F)ccc1O [diflunisal] | induced deacetylation of specific histone residues, H2AK5, K9, H2BK12/K15, H3K56 | 160 | decreased in a dose-dependent manner | 150 to 350 | – | – | – |
| O=C(O)c1ccccc1O [salicylate, salicylic acid] | deacetylation of H2AK5/K9, H2BK12/K15, and H3K56 in a dose-dependent manner | – | decreased in a dose-dependent manner | – | 4800 | 1000 to 3000 | 1 to 3 |
